We go through 19 molecules from ChEMBL document CHEMBL5370562, “Synthesis and evaluation of Fmoc-amino esters and amides bearing a substrate like quaternary ammonium group as selective butyrylcholinesterase inhibitors” (Bioorg Med Chem Lett, 2023).

One may read the pIC50 as the negative decadic logarithm of the IC50, by convention in mol/L. High values mean a small IC50, low ones a large IC50. Broadly, the inhibition is the drop in the measured response relative to a control, in per cent.

pIC50: −log10 of the molar value. Activity calls are given as the source filed them. The calls are words filed in the database; no cut-off is given here.

Data set [1] addresses T1, Cholinesterase (Equus caballus, UniProt P81908). The data set is described as follows: Inhibition of equine serum BuChE using S-butyrylthiocholine iodide as substrate and measured for 60 secs by Ellman's method. Format: cell-free.
Data set [2] has as its target T1, Cholinesterase. The data set is described as follows: (§1) Substrate activity at equine serum BuChE assessed as compound hydrolysis at 10XIC50 measured after 1 hr by HPLC analysis. The following applies: horse, serum, 1 h. It is filed as ADME, cell-free.
The target of data set [3] is Cholinesterase (Equus caballus) (UniProt P81908). Description: Reversible inhibition of equine serum BuChE assessed as residual enzyme activity at IC50 using S-butyrylthiocholine iodide as substrate preincubated with enzyme for 60 mins followed by 80-fold dilution with BTC and DTNB and measured for 1 min by spectrophotometric analysis relative to control. Format: cell-free. The following applies: time 61.0 min.
Cholinesterase (Equus caballus), sequence (P81908 whole entry): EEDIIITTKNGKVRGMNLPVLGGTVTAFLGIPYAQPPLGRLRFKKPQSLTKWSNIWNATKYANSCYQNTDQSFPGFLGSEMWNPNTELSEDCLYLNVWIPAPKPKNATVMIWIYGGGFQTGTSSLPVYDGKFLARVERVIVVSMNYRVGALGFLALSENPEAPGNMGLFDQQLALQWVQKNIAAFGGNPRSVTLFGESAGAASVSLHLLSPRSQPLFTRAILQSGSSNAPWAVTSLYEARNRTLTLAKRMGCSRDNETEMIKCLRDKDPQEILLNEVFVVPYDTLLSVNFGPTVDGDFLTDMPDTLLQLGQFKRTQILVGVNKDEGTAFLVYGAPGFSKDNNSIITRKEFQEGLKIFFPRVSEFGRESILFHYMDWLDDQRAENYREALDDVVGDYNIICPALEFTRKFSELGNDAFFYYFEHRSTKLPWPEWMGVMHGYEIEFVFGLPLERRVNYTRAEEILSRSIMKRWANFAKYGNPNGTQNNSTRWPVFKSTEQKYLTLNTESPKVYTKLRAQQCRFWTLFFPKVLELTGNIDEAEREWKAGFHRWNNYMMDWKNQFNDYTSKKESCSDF

Data set [4] shares this target. The data set is described as follows: Inhibition of equine serum BuChE assessed as residual enzyme activity at 20 uM using S-butyrylthiocholine iodide as substrate and measured for 60 secs by spectrophotometric analysis relative to control. Format: cell-free. The following applies: time 60.0 sec.
For data set [5] the target is unchanged. Description: Inhibition of equine serum BuChE assessed as residual enzyme activity at 10 uM using S-butyrylthiocholine iodide as substrate and measured for 60 secs by spectrophotometric analysis relative to control. It is filed as cell-free. The note with it: time 60.0 sec.
Data set [6] has the same target. Description: Inhibition of equine serum BuChE assessed as residual enzyme activity at 50 uM using S-butyrylthiocholine iodide as substrate and measured for 60 secs by spectrophotometric analysis relative to control. Format: cell-free. The following applies: time 60.0 sec.
In data set [7] the target is Acetylcholinesterase (Electrophorus electricus) (UniProt O42275). The data set is described as follows: Inhibition of electric eel AChE assessed as residual enzyme activity at 10 uM using acetylthiocholine iodide as substrate and measured for 1 min by spectrophotometrc analysis relative to control.
Acetylcholinesterase (Electrophorus electricus), sequence (O42275 24-633 limits assumed): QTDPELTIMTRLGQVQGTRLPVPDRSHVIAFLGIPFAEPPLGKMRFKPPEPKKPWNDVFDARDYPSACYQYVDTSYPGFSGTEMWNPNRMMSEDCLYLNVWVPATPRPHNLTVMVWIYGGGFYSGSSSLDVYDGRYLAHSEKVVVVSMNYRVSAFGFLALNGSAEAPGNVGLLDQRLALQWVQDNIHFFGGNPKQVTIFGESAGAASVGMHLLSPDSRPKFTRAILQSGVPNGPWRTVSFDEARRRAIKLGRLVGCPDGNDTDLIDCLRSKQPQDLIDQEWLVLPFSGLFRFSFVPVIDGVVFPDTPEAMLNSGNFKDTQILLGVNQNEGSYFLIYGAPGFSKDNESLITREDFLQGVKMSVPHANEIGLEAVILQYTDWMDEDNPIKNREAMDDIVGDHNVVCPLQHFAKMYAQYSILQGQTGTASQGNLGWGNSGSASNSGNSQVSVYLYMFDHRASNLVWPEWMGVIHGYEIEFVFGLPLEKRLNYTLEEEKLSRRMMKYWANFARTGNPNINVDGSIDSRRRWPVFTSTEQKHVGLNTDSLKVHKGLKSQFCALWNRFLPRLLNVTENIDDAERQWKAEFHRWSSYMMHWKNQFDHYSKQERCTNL
Data set [8] shares this target. Description: Inhibition of electric eel AChE assessed as residual enzyme activity at 20 uM using acetylthiocholine iodide as substrate and measured for 1 min by spectrophotometrc analysis relative to control.
Data set [9] has the same target. Description: Inhibition of electric eel AChE assessed as residual enzyme activity at 50 uM using acetylthiocholine iodide as substrate and measured for 1 min by spectrophotometrc analysis relative to control.
The target in data set [10] is T2, Trypsin (Homo sapiens) (UniProt P07477+P07478+P35030). Description: Inhibition of trypsin (unknown origin) assessed as residual enzyme activity at 10 uM using 4-nitrophenyl acetate as substrate and measured for 1 min by spectrophotometric analysis relative to control. It is filed as protein assay.
Data set [11] has as its target T2, Trypsin (Homo sapiens). The data set is described as follows: Inhibition of trypsin (unknown origin) assessed as residual enzyme activity at 20 uM using 4-nitrophenyl acetate as substrate and measured for 1 min by spectrophotometric analysis relative to control. It is filed as protein assay.
Data set [12] addresses T2, Trypsin (Homo sapiens). Description: Inhibition of trypsin (unknown origin) assessed as residual enzyme activity at 50 uM using 4-nitrophenyl acetate as substrate and measured for 1 min by spectrophotometric analysis relative to control. Format: protein assay.
The target of data set [13] is T2, Trypsin (Homo sapiens). Description: Inhibition of trypsin (unknown origin) at 50 uM using 4-nitrophenyl acetate as substrate and measured for 1 min by spectrophotometric analysis relative to control. Format: protein assay.
In data set [14] the target is Acetylcholinesterase (Electrophorus electricus) (UniProt O42275). The data set is described as follows: Inhibition of electric eel AChE at 100XIC50 for BuChE using acetylthiocholine iodide as substrate and measured for 1 min by spectrophotometrc analysis.
Data set [15] addresses BuChE (butyrylcholinesterase) (Equus caballus, UniProt P81908). The description is as §1. The following applies: horse, equine serum butyrylcholinesterase (BuChE), read-out: Drug metabolism. It is filed as ADME, cell-free.
The nature of data set [16]: Drug metabolism in sodium phosphate buffer assessed as compound hydrolysis at 10XIC50 measured after 24 hrs by HPLC analysis. The following applies: read-out: Drug metabolism. Format: ADME.
The target in data set [17] is Acetylcholinesterase (Electrophorus electricus) (UniProt O42275). The data set is described as follows: Inhibition of electric eel AChE at 50 uM using acetylthiocholine iodide as substrate and measured for 1 min by spectrophotometrc analysis relative to control.
Data set [18] shares this target. The data set is described as follows: Inhibition of electric eel AChE at 25XIC50 for BuChE using acetylthiocholine iodide as substrate and measured for 1 min by spectrophotometrc analysis relative to control.
Data set [19] addresses Cholinesterase (Equus caballus) (UniProt P81908). Description: Irreversible inhibition of equine serum BuChE assessed as residual enzyme activity at IC50 using S-butyrylthiocholine iodide as substrate preincubated with enzyme for 60 mins followed by 80-fold dilution with BTC and DTNB and measured for 1 min by spectrophotometric analysis relative to control. Format: cell-free. The following applies: time 61.0 min.

T1 sequence (P81908 whole entry): as the sequence (P81908 whole entry) above
BuChE (butyrylcholinesterase), sequence (P81908 whole entry): as above

`CC(C)C[C@H](NC(=O)OCC1c2ccccc2-c2ccccc21)C(=O)NCC[N+](C)(C)C.[I-]` had a pIC50 at Cholinesterase [1] of 5.74. In addition, the Drug metabolism entry on Cholinesterase [2] is recorded as “Metabolite_Notdetected”. In addition, the Ratio in [3] is 1.01; in data set [4], 0.11; in data set [5], 0.21; in data set [6], 0.03; in [7] it was 1; in data set [8], 1.01. Further, the Ratio in data set [9] is 0.92; on Trypsin (Homo sapiens) [10], 1.05; on Trypsin (Homo sapiens) [11] it was 0.99; at Trypsin (Homo sapiens) [12] it was 0.99. The molecule further showed an inhibition against Trypsin (Homo sapiens) [13] below 5%. Besides, the inhibition entry in data set [14] is “Active”.

On Cholinesterase [1], `CC(C)(C)OC(=O)n1cc(C[C@H](NC(=O)OCC2c3ccccc3-c3ccccc32)C(=O)OCC[N+](C)(C)C)c2ccccc21` gave a pIC50 of 6.40. For the same molecule, the metabolised at 1 h in [15] was around 25%. Also, the degraded at 24 h in data set [16] is around 20%.

For `C[C@H](NC(=O)OCC1c2ccccc2-c2ccccc21)C(=O)O`, the pIC50 at Cholinesterase [1] was at most 3.70.

`C[C@H](NC(=O)OCC1c2ccccc2-c2ccccc21)C(=O)OCC[N+](C)(C)C` gave a pIC50 against Cholinesterase [1] of 5.29. Also, the metabolised at 1 h in [15] was around 25%. Besides, the degraded at 24 h in data set [16] is around 20%.

As for `CC(C)(C)OC(=O)NCCCC[C@H](NC(=O)OCC1c2ccccc2-c2ccccc21)C(=O)OCC[N+](C)(C)C`, on Cholinesterase [1], the pIC50 was 6.30. Moreover, the metabolised at 1 h in data set [15] was around 25%. In addition, the degraded at 24 h in data set [16] is around 20%.

As for `CC(C)(C)OC(=O)NCCCC[C@H](NC(=O)OCC1c2ccccc2-c2ccccc21)C(=O)NCC[N+](C)(C)C.[I-]`, at Cholinesterase [1], the pIC50 is 6.85. Besides, the Drug metabolism result on Cholinesterase [2] is reported as “Metabolite_Notdetected”. The Ratio in data set [3] is 1.04; in data set [4], 0.03; in data set [5], 0.06; in data set [6], 0.01; in [7], 1.01; in [8], 1. Also, the Ratio was 0.81 in data set [9], 1 on Trypsin (Homo sapiens) [10], 0.95 on Trypsin (Homo sapiens) [11] and 0.97 at Trypsin (Homo sapiens) [12]. The inhibition in [17] was 20%; at Trypsin (Homo sapiens) [13], below 5%. For the same molecule, the inhibition entry in data set [14] is “Active”.

As for `C[N+](C)(C)CCNC(=O)[C@H](Cc1ccccc1)NC(=O)OCC1c2ccccc2-c2ccccc21.[I-]`, the pIC50 at Cholinesterase [1] was 6.22. The Drug metabolism entry at Cholinesterase [2] is given as “Metabolite_Notdetected”. Further, the Ratio in data set [3] came to 1.01; in data set [4], 0.03; in [5], 0.07; in data set [6], 0.02; in data set [7], 0.97; in data set [8], 0.99. Besides, the Ratio was 0.89 in data set [9], 1.01 on Trypsin (Homo sapiens) [10], 1.01 on Trypsin (Homo sapiens) [11] and 0.95 on Trypsin (Homo sapiens) [12]. The inhibition in data set [17] is 10%; against Trypsin (Homo sapiens) [13] it was below 5%. Further, the inhibition entry in data set [14] is “Active”.

The molecule `CC(C)C[C@H](NC(=O)OCC1c2ccccc2-c2ccccc21)C(=O)OCC[N+](C)(C)C` showed a pIC50 on Cholinesterase [1] of 6.15. Also, the metabolised at 1 h in data set [15] was around 50%. In addition, in data set [16], the degraded at 24 h is around 20%.

In the case of `CC(C)(C)OC(=O)n1cc(C[C@H](NC(=O)OCC2c3ccccc3-c3ccccc32)C(=O)O)c2ccccc21`, the pIC50 against Cholinesterase [1] was 4.64.

Turning to `CC(C)(C)OC(=O)n1cc(C[C@H](NC(=O)OCC2c3ccccc3-c3ccccc32)C(=O)NCC[N+](C)(C)C)c2ccccc21.[I-]`, the pIC50 against Cholinesterase [1] is 6.77. Also, the Drug metabolism entry at Cholinesterase [2] is recorded as “Metabolite_Notdetected”. The Ratio was 0.99 in [3]; 0.02 in data set [4]; 0.04 in data set [5]; below 0.01 in [6]; 0.96 in data set [7]; 0.87 in data set [8]. In addition, the Ratio in data set [9] stood at 0.68; on Trypsin (Homo sapiens) [10], 1; on Trypsin (Homo sapiens) [11], 0.93; at Trypsin (Homo sapiens) [12] it was 0.94. Also, the figures for the inhibition (in [18]; in [17]; against Trypsin (Homo sapiens) [13]) were 10%, 30% and below 5%, respectively. Moreover, in data set [14], the inhibition result was “Active”.

As for `O=S(=O)(F)Cc1ccccc1`, the Ratio in data set [5] was below 0.01; in [19], 0.01; in data set [7], below 0.01; at Trypsin (Homo sapiens) [10] it was below 0.01.

In turn, `C[N+](C)(C)CCOC(=O)CNC(=O)OCC1c2ccccc2-c2ccccc21` gave a negative-log IC50 (pIC50) against Cholinesterase [1] of 5.17. The metabolised at 1 h in data set [15] was around 100%. Moreover, in [16], the degraded at 24 h is around 20%.

Molecule `C[C@H](NC(=O)OCC1c2ccccc2-c2ccccc21)C(=O)NCC[N+](C)(C)C.[I-]` had a pIC50 against Cholinesterase [1] of 5.12. The Drug metabolism result on Cholinesterase [2] was “Metabolite_Notdetected”. For the same molecule, the Ratio in [3] stood at 1.02; in [4] it was 0.31; in data set [5], 0.44; in data set [6], 0.13; in [7], 1; in data set [8], 0.97. The Ratio in [9] worked out at 0.94; at Trypsin (Homo sapiens) [10], 1.01; at Trypsin (Homo sapiens) [11] it was 1.04; at Trypsin (Homo sapiens) [12], 0.98. The molecule further returned an inhibition against Trypsin (Homo sapiens) [13] below 5%. Moreover, in data set [14], the inhibition result was “Active”.

As to `C[N+](C)(C)CCOC(=O)[C@H](Cc1ccccc1)NC(=O)OCC1c2ccccc2-c2ccccc21`, the pIC50 on Cholinesterase [1] was 6.00. In addition, in data set [15], the metabolised at 1 h was around 100%. The degraded at 24 h in [16] is around 20%.

`CC(C)(C)OC(=O)NCCCC[C@H](NC(=O)OCC1c2ccccc2-c2ccccc21)C(=O)O` gave a pIC50 against Cholinesterase [1] of 4.39.

On Cholinesterase [1], `C[N+](C)(C)CCNC(=O)CNC(=O)OCC1c2ccccc2-c2ccccc21.[I-]` gave a pIC50 of 5.43. On Cholinesterase [2], the Drug metabolism entry is recorded as “Metabolite_Notdetected”. The Ratio is 1 in [3]; 0.21 in data set [4]; 0.36 in data set [5]; 0.07 in data set [6]; 0.99 in data set [7]; 0.95 in data set [8]. The Ratio came out at 0.84 in [9], 0.96 on Trypsin (Homo sapiens) [10], 0.96 on Trypsin (Homo sapiens) [11] and 1.06 at Trypsin (Homo sapiens) [12]. Moreover, the figures for the inhibition (in [17]; against Trypsin (Homo sapiens) [13]) were 10% and below 5%, respectively. In [14], the inhibition result was “Active”.

Molecule `O=C(N[C@@H](Cc1ccccc1)C(=O)O)OCC1c2ccccc2-c2ccccc21` had a pIC50 against Cholinesterase [1] of 3.49.

In turn, `O=C(O)CNC(=O)OCC1c2ccccc2-c2ccccc21` had a pIC50 against Cholinesterase [1] of at most 3.70.

As for `CC(C)C[C@H](NC(=O)OCC1c2ccccc2-c2ccccc21)C(=O)O`, on Cholinesterase [1], the pIC50 was 3.87.
